The results in this text go back to ChEMBL document CHEMBL4402573, “Discovery and Optimization of α-Mangostin Derivatives as Novel PDE4 Inhibitors for the Treatment of Vascular Dementia” (J Med Chem, 2020).

Broadly, the IC50 is the concentration at which inhibition is half-maximal.

The source made the active and inactive calls. No cut-off for these calls is given here.

Sequence of 3',5'-cyclic-AMP phosphodiesterase 4D (Q08499 whole entry, the tested form may be a part): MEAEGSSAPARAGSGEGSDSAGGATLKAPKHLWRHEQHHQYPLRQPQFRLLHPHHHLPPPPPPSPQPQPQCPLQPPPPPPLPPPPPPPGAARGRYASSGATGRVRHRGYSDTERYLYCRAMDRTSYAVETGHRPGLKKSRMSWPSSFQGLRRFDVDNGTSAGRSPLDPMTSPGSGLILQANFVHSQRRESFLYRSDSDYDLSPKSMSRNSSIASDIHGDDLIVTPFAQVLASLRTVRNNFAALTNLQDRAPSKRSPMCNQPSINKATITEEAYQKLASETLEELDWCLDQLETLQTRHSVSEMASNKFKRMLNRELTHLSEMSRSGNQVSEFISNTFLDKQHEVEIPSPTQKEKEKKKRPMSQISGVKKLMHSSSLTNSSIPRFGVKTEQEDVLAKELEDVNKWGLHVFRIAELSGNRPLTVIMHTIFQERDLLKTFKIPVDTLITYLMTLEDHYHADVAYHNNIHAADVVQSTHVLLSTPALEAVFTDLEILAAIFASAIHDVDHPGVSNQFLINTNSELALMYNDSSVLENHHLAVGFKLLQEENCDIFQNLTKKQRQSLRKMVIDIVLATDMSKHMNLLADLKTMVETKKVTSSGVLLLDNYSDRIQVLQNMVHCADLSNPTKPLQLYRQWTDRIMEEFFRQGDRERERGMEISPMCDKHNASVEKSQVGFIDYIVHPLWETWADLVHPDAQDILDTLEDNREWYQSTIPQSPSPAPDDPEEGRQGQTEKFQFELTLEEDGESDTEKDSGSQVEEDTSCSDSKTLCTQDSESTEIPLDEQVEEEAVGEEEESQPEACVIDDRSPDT

The first data set addresses 3',5'-cyclic-AMP phosphodiesterase 4D (Homo sapiens, UniProt Q08499). Kind of data set: Inhibition of human PDE4D2 (86 to 413 residues) expressed in Escherichia coli BL21 codon-plus cells using [3H]cAMP as substrate incubated for 15 mins by liquid scintillation counting method.
Conditions: not given
Regarding `COc1c(OCCCCCCN2CCCC2)cc2oc3cc4c(c(O)c3c(=O)c2c1CC=C(C)C)C=CC(C)(C)O4`, the IC50 amounted to 99 nM. Still for that read-out and setting: in the case of `COc1c(OCCCCCBr)cc2oc3cc4c(c(O)c3c(=O)c2c1CC=C(C)C)C=CC(C)(C)O4` it was over 10000 nM; in that of `COc1c(OCCCCCCCN2CCCC2)cc2oc3cc4c(c(O)c3c(=O)c2c1CC=C(C)C)C=CC(C)(C)O4`, 148 nM. `COc1c(OCCCC(=O)O)cc2oc3cc4c(c(O)c3c(=O)c2c1CC=C(C)C)C=CC(C)(C)O4`: the IC50 was 44 nM. For the compound `COc1c(OCCCCCN2CCCC2)cc2oc3cc4c(c(O)c3c(=O)c2c1CC=C(C)C)C=CC(C)(C)O4`, the concentration for half-maximal inhibition (IC50) came out at 200 nM. Regarding `COc1c(OCCCCCC(=O)O)cc2oc3cc4c(c(O)c3c(=O)c2c1CC=C(C)C)C=CC(C)(C)O4`, the concentration for half-maximal inhibition (IC50) came to 76 nM. As for `COc1c(O)cc2oc3cc(O)c(CC=C(C)C)c(O)c3c(=O)c2c1CC=C(C)C` [MANGOSTIN], the IC50 is 1310 nM. The same measure, in the same setting: for `COc1c(OCCCCCCCCC(=O)O)cc2oc3cc4c(c(O)c3c(=O)c2c1CC=C(C)C)C=CC(C)(C)O4` the value was 58 nM. On the same count and under the same terms, for `COc1c(OCCCCCCCBr)cc2oc3cc4c(c(O)c3c(=O)c2c1CC=C(C)C)C=CC(C)(C)O4` the value was over 10000 nM; for `COc1c(OCCCCCCCC(=O)O)cc2oc3cc4c(c(O)c3c(=O)c2c1CC=C(C)C)C=CC(C)(C)O4`, 16 nM; for `CCOC(=O)CCCCCOc1cc2oc3cc4c(c(O)c3c(=O)c2c(CC=C(C)C)c1OC)C=CC(C)(C)O4`, over 10000 nM.

On to `COc1c(OCCCN2CCCC2)cc2oc3cc4c(c(O)c3c(=O)c2c1CC=C(C)C)C=CC(C)(C)O4`, for which the half-inhibitory concentration (IC50) is over 1000 nM. Same read-out and setting: for `COc1c(O)cc2oc3cc4c(c(O)c3c(=O)c2c1CC=C(C)C)C=CC(C)(C)O4` [MANGOSTANIN] the value was 420 nM; for `COc1c(OCCCCN2CCCC2)cc2oc3cc4c(c(O)c3c(=O)c2c1CC=C(C)C)C=CC(C)(C)O4`, 622 nM. The same measure, in the same setting: for `COc1c(OCCCCC(=O)O)cc2oc3cc4c(c(O)c3c(=O)c2c1CC=C(C)C)C=CC(C)(C)O4` the value was 99 nM. `COc1c(OCCCBr)cc2oc3cc4c(c(O)c3c(=O)c2c1CC=C(C)C)C=CC(C)(C)O4`: the IC50 was over 10000 nM.

With `COc1c(OCCCCBr)cc2oc3cc4c(c(O)c3c(=O)c2c1CC=C(C)C)C=CC(C)(C)O4`, the half-inhibitory concentration (IC50) is over 10000 nM. As to `CCOC(=O)CCCOc1cc2oc3cc4c(c(O)c3c(=O)c2c(CC=C(C)C)c1OC)C=CC(C)(C)O4`, the half-inhibitory concentration (IC50) was over 10000 nM.

Take `CCOC(=O)CCCCCCCCOc1cc2oc3cc4c(c(O)c3c(=O)c2c(CC=C(C)C)c1OC)C=CC(C)(C)O4`: the IC50 is over 10000 nM. The same measure, in the same setting: for `CCOC(=O)CCCCCCOc1cc2oc3cc4c(c(O)c3c(=O)c2c(CC=C(C)C)c1OC)C=CC(C)(C)O4` the value was over 10000 nM; for `COc1c(OCC(=O)O)cc2oc3cc4c(c(O)c3c(=O)c2c1CC=C(C)C)C=CC(C)(C)O4`, 480 nM.

For `CCOC(=O)COc1cc2oc3cc4c(c(O)c3c(=O)c2c(CC=C(C)C)c1OC)C=CC(C)(C)O4`, the IC50 was over 10000 nM.

As to `CCOC(=O)CCCCOc1cc2oc3cc4c(c(O)c3c(=O)c2c(CC=C(C)C)c1OC)C=CC(C)(C)O4`, the 50% inhibitory concentration (IC50) is over 10000 nM. On the same count and under the same terms, in the case of `CCOC(=O)CCCCCCCOc1cc2oc3cc4c(c(O)c3c(=O)c2c(CC=C(C)C)c1OC)C=CC(C)(C)O4` it was over 10000 nM; in that of `COc1c(OCCCCCCBr)cc2oc3cc4c(c(O)c3c(=O)c2c1CC=C(C)C)C=CC(C)(C)O4`, over 10000 nM.

In another data set the target is Phosphodiesterase isozyme 4 (Homo sapiens, UniProt Q86V67). Briefly: Inhibition of PDE4 (unknown origin).
Sequence of Phosphodiesterase isozyme 4 (Q86V67 whole entry): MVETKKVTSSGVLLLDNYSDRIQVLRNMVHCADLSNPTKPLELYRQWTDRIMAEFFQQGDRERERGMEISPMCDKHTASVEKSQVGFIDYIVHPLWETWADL
Conditions: not given
In the case of `C=C(C)[C@@H]1CC[C@]2(C(=O)O)CC[C@]3(C)[C@H](CC[C@@H]4[C@@]5(C)CC[C@H](O)C(C)(C)[C@@H]5CC[C@]43C)[C@@H]12` [BETULINIC ACID], 125000 nM corresponded to half-maximal inhibition (IC50).

Tested on in the next data set: not listed separately
Briefly: Toxicity in Beagle dog assessed as animals exhibiting emesis at 1 mg/kg, po observed for 180 mins. In kind it is organism-based, Canis lupus familiaris. The following applies: in vivo, 3 h.
Regarding `COc1ccc(C2CNC(=O)C2)cc1OC1CCCC1` (stereo not given) [ROLIPRAM], the Activity was 100%.

For a further data set, the system named is Mus musculus. Briefly: Anti-VaD activity against UCCAO-induced spatial memory deficient C57BL/6J mouse model assessed as improvement in spatial learning and memory by measuring reduction in escape latency at 0.7 mg/kg, po administered for 21 days by Morris water maze test. In kind it is functional, organism-based.
Conditions: not given
Take `COc1cc2c(cc1OC)C(=O)C(CC1CCN(Cc3ccccc3)CC1)C2` (stereo not given): the result was Active.

A further data set relates to Mus musculus. Kind of data set: Anti-VaD activity against UCCAO-induced spatial memory deficient C57BL/6J mouse model assessed as improvement in spatial learning and memory by measuring increase in frequency of platform area crossings at 0.7 mg/kg, po administered for 21 days by Morris water maze test. In kind it is functional, organism-based.
Conditions: not given
As for `COc1cc2c(cc1OC)C(=O)C(CC1CCN(Cc3ccccc3)CC1)C2` (stereo not given), the result was Active.

For the next data set, the system named is Mus musculus. Briefly: Anti-VaD activity against UCCAO-induced spatial memory deficient C57BL/6J mouse model assessed as improvement in spatial learning and memory by measuring increase in residence time on the platform at 0.7 mg/kg, po administered for 21 days by Morris water maze test.
Conditions: not given
The data set is classed as functional, organism-based.
Regarding `COc1cc2c(cc1OC)C(=O)C(CC1CCN(Cc3ccccc3)CC1)C2` (stereo not given), the result was Active.
